Laboratory results: patent US9522886B2, “Pyridine derivatives” (Hoffmann-La Roche Inc., priority 2012, dated 2016)
pEC50: −log10 of the molar value.

Assays:
[1] = molecular target: human CB2 receptors (Homo sapiens (Human), UniProt P34972); experiment: cAMP assay, CHO cells expressing human CB2 receptors; assay type: cell-based; conditions: functional cAMP assay, CHO cells expressing human CB2; read-out: human CB2 EC50
[2] = molecular target: human CB1 receptors (Homo sapiens (Human), UniProt P21554); experiment: cAMP assay, CHO cells expressing human CB1 receptors; assay type: cell-based; conditions: functional cAMP assay, CHO cells expressing human CB1; read-out: human CB1 EC50
Chain of human CB1 receptors (P21554 whole entry): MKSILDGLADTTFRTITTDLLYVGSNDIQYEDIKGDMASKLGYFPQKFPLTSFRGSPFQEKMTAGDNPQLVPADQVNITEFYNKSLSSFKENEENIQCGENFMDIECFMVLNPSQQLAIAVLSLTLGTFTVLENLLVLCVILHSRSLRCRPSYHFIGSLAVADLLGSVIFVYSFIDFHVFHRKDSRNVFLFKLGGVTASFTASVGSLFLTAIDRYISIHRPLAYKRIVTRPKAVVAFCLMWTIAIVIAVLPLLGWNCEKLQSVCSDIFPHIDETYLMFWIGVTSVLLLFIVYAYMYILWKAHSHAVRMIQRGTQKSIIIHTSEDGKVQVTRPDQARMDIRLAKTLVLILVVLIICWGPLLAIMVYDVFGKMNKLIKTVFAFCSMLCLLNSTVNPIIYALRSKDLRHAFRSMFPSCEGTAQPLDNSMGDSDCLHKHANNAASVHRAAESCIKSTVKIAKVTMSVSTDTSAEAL

Chain of human CB2 receptors (P34972 whole entry): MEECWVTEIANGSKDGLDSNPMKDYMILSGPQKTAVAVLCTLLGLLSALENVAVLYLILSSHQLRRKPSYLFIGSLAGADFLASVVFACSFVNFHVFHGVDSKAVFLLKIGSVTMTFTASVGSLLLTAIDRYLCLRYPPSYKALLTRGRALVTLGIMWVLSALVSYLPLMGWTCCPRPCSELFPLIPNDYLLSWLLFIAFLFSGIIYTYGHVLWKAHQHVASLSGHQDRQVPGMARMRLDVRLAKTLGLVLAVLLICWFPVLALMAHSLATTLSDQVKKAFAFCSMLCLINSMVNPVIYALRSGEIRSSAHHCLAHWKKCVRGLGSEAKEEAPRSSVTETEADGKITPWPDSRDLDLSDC

Structure (SMILES) | pEC50 [1] | pEC50 [2]
NC(=O)CC1(NC(=O)c2ccc(C3(O)COC3)c(OCC3CC3)n2)COC1 [Example 94, N-[3-(2-Amino-2-oxoethyl)oxetan-3-yl]-6-(cyclopropylmethoxy)-5-(3-hydroxyoxetan-3-yl)pyridine-2-carboxamide] | 6.60 | < 5.00
NC(=O)CC1(NC(=O)c2ccc(C3(O)CCC3)c(OCC3CC3)n2)CSC1 [Example 95, N-[3-(2-Amino-2-oxoethyl)thietan-3-yl]-6-(cyclopropylmethoxy)-5-(1-hydroxycyclobutyl)pyridine-2-carboxamide] | 8.96 | < 5.00
NC(=O)CC1(NC(=O)c2ccc(C3CC3)c(OCC3CC3)n2)CSC1 [Example 96, N-[3-(2-Amino-2-oxoethyl)thietan-3-yl]-5-cyclopropyl-6-(cyclopropylmethoxy)pyridine-2-carboxamide] | 8.74 | < 5.00
NC(=O)CC1(NC(=O)c2ccc(C(F)(F)F)c(OCC3CC3)n2)CSC1 [Example 97, N-[3-(2-Amino-2-oxoethyl)thietan-3-yl]-6-(cyclopropylmethoxy)-5-(trifluoromethyl)pyridine-2-carboxamide] | 7.94 | < 5.00
NC(=O)CC1(NC(=O)c2ccc(C3(F)COC3)c(OCC3CC3)n2)CSC1 [Example 98, N-[3-(2-Amino-2-oxoethyl)thietan-3-yl]-6-(cyclopropylmethoxy)-5-(3-fluorooxetan-3-yl)pyridine-2-carboxamide] | 8.92 | < 5.00
